The values below come from publication PMC12292302, “Revealing the Improving Effect and Molecular Mechanism of L-Clausenamide in Combating the Acute Lung Injury: Insights from Network Pharmacology, Molecular Docking, and In Vitro Validation” (Biology, 2025).

For the assay, the target named is AKT1 (RAC-alpha serine/threonine-protein kinase) (Homo sapiens, UniProt P31749). The assay can be described thus: SPR (Biacore 8K+, CM7 chip, purchased AKT1 protein MCE HY-P74421). It is filed as binding. (In general: SPR reads the build-up and loss of mass on a sensor chip optically.)

The structures appear in SMILES notation.

AKT1 (RAC-alpha serine/threonine-protein kinase), sequence (P31749 whole entry): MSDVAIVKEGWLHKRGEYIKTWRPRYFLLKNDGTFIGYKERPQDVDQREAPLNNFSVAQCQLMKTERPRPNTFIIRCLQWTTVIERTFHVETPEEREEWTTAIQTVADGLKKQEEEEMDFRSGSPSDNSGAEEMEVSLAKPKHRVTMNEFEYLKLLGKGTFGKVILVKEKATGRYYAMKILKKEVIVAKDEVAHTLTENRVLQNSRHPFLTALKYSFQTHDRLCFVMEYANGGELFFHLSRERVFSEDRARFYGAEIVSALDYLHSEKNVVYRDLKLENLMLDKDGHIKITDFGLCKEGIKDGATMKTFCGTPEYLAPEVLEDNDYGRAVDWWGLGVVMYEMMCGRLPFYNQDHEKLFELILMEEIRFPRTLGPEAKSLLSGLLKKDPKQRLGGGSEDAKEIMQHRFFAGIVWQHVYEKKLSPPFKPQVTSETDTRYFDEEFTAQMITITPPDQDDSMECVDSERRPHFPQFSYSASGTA

`CN1C(=O)[C@@H](O)[C@H](c2ccccc2)[C@@H]1[C@@H](O)c1ccccc1` [L-Clausenamide] came in with a Kd of 10.3 µM.

As usually defined, the Kd is the free concentration of one partner at which half of the binding sites on the other are occupied at equilibrium, for simple one-to-one binding. Low readings indicate a tighter complex, high ones a looser complex.
